Experimental data: patent publication US7771753B2, “Topical formulations comprising ceramic hydroxyapatite particles” (Laboratory Skin Care, Inc., priority 1995, dated 2010)

Test system: microorganisms (bacteria, fungi, pseudomonas aeruginosa, pseudomonas capacia, staphylococcus aureus, escherichia coli, candida albicans, aspergillus niger …)
Assay: Antimicrobial effectiveness of the agent used in the formulation
Details: salmonella typhimurium
From the text: A preferred chemical antimicrobial agent for use under the invention is Triclosan. This agent used in the formulation has been found effective against the whole genera of microorganisms, (for example: bacteria, fungi, pseudomonas aeruginosa, pseudomonas capacia, staphylococcus aureus, escherichia coli, candida albicans, aspergillus niger, salmonella typhimurium, etc . . . ). […] The antimicrobial chemical agent is normally present in an amount of from 0.001-5% by weight, preferably from 0.05-2% by weight, and more preferably from 0.1-1% by weight.

Oc1cc(Cl)ccc1Oc1ccc(Cl)cc1Cl [Triclosan]
effectiveness against microorganisms: effective
